In patent publication US7868005B2, “Pyrazinyl substituted piperazine-piperidines with CXCR3 antagonist activity” (Schering Corporation, priority 2005, dated 2011):

biological target: T1, human CXCR3 (N-delta 4) (Homo sapiens, UniProt P49682); assay: Human CXCR3 (N-delta 4) Scintillation Proximity Assay (SPA), [125I] IP-10 binding to Ba/F3-hCXCR3 membranes; settings: IC50 rating, Table 1; read-out: IC50
T1 construct: CD8 leader (N); Flag; expressed in transfected cells; membranes prepared
T1 sequence (P49682 5-368 limits assumed): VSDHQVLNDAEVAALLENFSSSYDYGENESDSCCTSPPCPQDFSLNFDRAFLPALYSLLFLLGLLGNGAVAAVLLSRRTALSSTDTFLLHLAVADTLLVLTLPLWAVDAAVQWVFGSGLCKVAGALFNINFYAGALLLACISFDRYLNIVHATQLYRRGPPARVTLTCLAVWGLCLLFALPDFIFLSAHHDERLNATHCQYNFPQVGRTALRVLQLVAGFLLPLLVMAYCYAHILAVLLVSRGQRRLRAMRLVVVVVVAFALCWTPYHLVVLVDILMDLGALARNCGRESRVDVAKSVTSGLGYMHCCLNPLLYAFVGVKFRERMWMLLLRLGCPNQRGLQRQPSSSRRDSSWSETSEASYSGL

Row | SMILES | IC50 [µM]
1 | CC[C@H]1CN(c2nc(N)c(C(=O)NCCNS(C)(=O)=O)nc2Cl)CCN1C1CCN([C@H](CO)c2ccc(Cl)cc2)CC1 [compound 249] | 0.025 to 0.1
2 | CC[C@H]1CN(c2nc(N)c(C(=O)NCCNS(C)(=O)=O)nc2Cl)CCN1C1CCN([C@@H](C(=O)OC)c2ccc(Cl)cc2)CC1 [compound 250] | 0.025 to 0.1
3 | CC[C@H]1CN(c2nc(N)c(C(=O)NCCNS(C)(=O)=O)nc2Cl)CCN1C1CCN([C@H](C(=O)OC)c2ccc(Cl)cc2)CC1 [compound 251] | > 0.1
4 | CC[C@H]1CN(c2nc(N)c(C(=O)NCCNS(C)(=O)=O)nc2Cl)CCN1C1CCN(Cc2ccc(F)c(F)c2N2CC[C@@H](O)C2)CC1 [compound 252] | 0.025 to 0.1
5 | CC[C@H]1CN(c2nc(N)c(C(=O)NCCNS(C)(=O)=O)nc2Cl)CCN1C1CCN(Cc2ccc(Cl)cc2C#N)CC1 [compound 253] | 0.025 to 0.1
6 | CC[C@H]1CN(c2nc(N)c(C(=O)NCCNS(C)(=O)=O)nc2Cl)CCN1C1CCN(Cc2ccc(Cl)cc2C(=N)NC)CC1 [compound 254] | 0.025 to 0.1
7 | CC[C@H]1CN(c2nc(N)c(C(=O)NCCNS(=O)(=O)N(C)C)nc2Cl)CCN1C1CCN(Cc2ccc(C#N)cc2)CC1 [compound 255] | 0.025 to 0.1
8 | CC[C@H]1CN(c2nc(NCc3ccc(F)c(F)c3)c(C(=O)NCCNS(N)(=O)=O)nc2Cl)CCN1C1CCN(Cc2ccc(F)c(F)c2)CC1 [compound 256] | < 0.025
9 | CC[C@H]1CN(c2nc(N)c(C(=O)NCCNS(N)(=O)=O)nc2Cl)CCN1C1CCN([C@@H](CO)c2ccc(Cl)cc2)CC1 [compound 257] | < 0.025
10 | CC[C@H]1CN(c2nc(N)c(C(=O)NCCNS(N)(=O)=O)nc2Cl)CCN1C1CCN(Cc2ccc(Cl)cc2C(=N)N)CC1 [compound 258] | < 0.025
11 | CC[C@H]1CN(c2nc(N)c(C(=O)NCCNS(N)(=O)=O)nc2Cl)CCN1C1CCN(C(CO)c2ccc(Cl)cc2)CC1 (some centres unmarked) [compound 259] | < 0.025
12 | CC[C@H]1CN(c2nc(N)c(C(=O)NCCNS(N)(=O)=O)nc2Cl)CCN1C1CCN(Cc2ccc(Cl)cc2C(=N)NC)CC1 [compound 260] | < 0.025
13 | CC[C@H]1CN(c2nc(N)c(C(=O)NCCNS(N)(=O)=O)nc2Cl)CCN1C1CCN([C@@H](C(=O)OC)c2ccc(Cl)cc2)CC1 [compound 261] | 0.025 to 0.1
14 | CC[C@H]1CN(c2nc(N)c(C(=O)NCCNS(N)(=O)=O)nc2Cl)CCN1C1CCN([C@H](CO)c2ccc(Cl)cc2)CC1 [compound 262] | > 0.1
15 | CC[C@H]1CN(c2nc(N)c(C(=O)NCCNS(N)(=O)=O)nc2Cl)CCN1C1CCN(C(C(=O)OC)c2ccc(Cl)cc2)CC1 (some centres unmarked) [compound 263] | > 0.1
16 | CC[C@H]1CN(c2nc(N)c(C(=O)NCCNS(N)(=O)=O)nc2Cl)CCN1C1CCN(Cc2ccc(Cl)cc2)CC1 [compound 264] | < 0.025
17 | CC[C@H]1CN(c2nc(N)c(C(=O)NCCNS(N)(=O)=O)nc2Cl)CCN1C1CCN(Cc2ccc(F)c(F)c2)CC1 [compound 265] | < 0.025
18 | CC[C@H]1CN(c2nc(N)c(C(=O)NCCNS(N)(=O)=O)nc2Cl)CCN1C1CCN(Cc2ccc(C#N)cc2)CC1 [compound 266] | < 0.025
19 | CC[C@H]1CN(c2nc(N)c(C(=O)NCCNS(N)(=O)=O)nc2Cl)CCN1C1CCN(Cc2ccc(Cl)cc2C#N)CC1 [compound 267] | < 0.025
20 | CC[C@H]1CN(c2nc(N)c(C(=O)NCCOC)nc2Cl)CCN1C1CCN(Cc2ccc(Cl)cc2)CC1 [compound 268] | < 0.025
21 | CC[C@H]1CN(c2nc(N)c(C(=O)N=C(N)N)nc2Cl)CCN1C1CCN(Cc2ccc(Cl)cc2F)CC1 [compound 269] | > 0.1
22 | CC[C@H]1CN(c2nc(N)c(C(=O)NNC(=S)NC)nc2Cl)CCN1C1CCN(Cc2ccc(Cl)cc2)CC1 [compound 270] | < 0.025
23 | CC[C@H]1CN(c2nc(N)c(C(=O)NN)nc2Cl)CCN1C1CCN(Cc2ccc(Cl)cc2)CC1 [compound 271] | < 0.025
24 | CC[C@H]1CN(c2nc(N)c(C(=O)NNC(C)=O)nc2Cl)CCN1C1CCN(Cc2ccc(Cl)cc2)CC1 [compound 272] | 0.025 to 0.1

Row | SMILES | IC50 [µM]
25 | CC[C@H]1CN(c2nc(N)c(C(=O)N[C@@H]3CCN(C(=O)OC(C)(C)C)C3)nc2Cl)CCN1C1CCN(Cc2ccc(Cl)cc2)CC1 [compound 274] | > 0.1
26 | CC[C@H]1CN(c2nc(N)c(C(=O)NCCCN3CCCS3(=O)=O)nc2Cl)CCN1C1CCN(Cc2ccc(C#N)cc2)CC1 [compound 275] | > 0.1
27 | CC[C@H]1CN(c2nc(N)c(C(=O)NCCCN3CCCC3=O)nc2Cl)CCN1C1CCN(Cc2ccc(C#N)cc2)CC1 [compound 276] | > 0.1
28 | CC[C@H]1CN(c2nc(N)c(C(=O)NC3CCOC3=O)nc2Cl)CCN1C1CCN(Cc2ccc(Cl)cc2)CC1 (some centres unmarked) [compound 277] | < 0.025
29 | CC[C@H]1CN(c2nc(N)c(C(=O)NC3CCOC3=O)nc2Cl)CCN1C1CCN(Cc2ccc(Cl)cc2)CC1 (some centres unmarked) [compound 278] | < 0.025
30 | CC[C@H]1CN(c2nc(N)c(C(=O)N[C@H]3CCOC3=O)nc2Cl)CCN1C1CCN(Cc2ccc(Cl)cc2)CC1 [compound 279] | < 0.025
31 | CC[C@H]1CN(c2nc(N)c(C(=O)N[C@@H]3CCNC3=O)nc2Cl)CCN1C1CCN(Cc2ccc(C#N)cc2)CC1 [compound 280] | > 0.1
32 | CC[C@H]1CN(c2nc(N)c(C(N)=O)nc2Cl)CCN1C1(C)CCN(Cc2ccc(Cl)cc2C(N)=O)CC1 [compound 281] | > 0.1
33 | CC[C@H]1CN(c2nc(N)c(C(N)=O)nc2Cl)CCN1C1CCN(Cc2ccc(Cl)cc2)[C@H](C(N)=O)C1 (some centres unmarked) [compound 282] | 0.025 to 0.1
34 | CC[C@H]1CN(c2nc(N)c(C(N)=O)nc2Cl)CCN1[C@H]1CCN(Cc2ccc(Cl)cc2)C[C@@H]1O [compound 283] | > 0.1
35 | CC[C@H]1CN(c2ncc(C(N)=O)nc2Cl)CCN1C1CCN(Cc2ccc(Cl)cc2F)CC1 [compound 284] | < 0.025
36 | CC[C@H]1CN(c2ncc(C(N)=O)nc2Cl)CCN1C1CCN(Cc2ccc(Cl)cc2[C@H](O)C(N)=O)CC1 [compound 285] | < 0.025
37 | CC[C@H]1CN(c2ncc(C(N)=O)nc2Cl)CCN1C1CCN(Cc2ccc(Cl)cc2[C@@H](O)C(N)=O)CC1 [compound 286] | < 0.025
38 | CNC(=O)c1cnc(N2C[C@H](C)N(C3CCN(Cc4ccc(Cl)cc4F)CC3)C[C@H]2C)cn1 [compound 287] | > 0.1
39 | COC(=O)c1cnc(N2C[C@H](C)N(C3CCN(Cc4ccc(Cl)cc4F)CC3)C[C@H]2C)cn1 [compound 288] | > 0.1
40 | C[C@@H]1CN(C2CCN(Cc3ccc(Cl)cc3F)CC2)[C@@H](C)CN1c1cnc(C(N)=O)cn1 [compound 289] | > 0.1
41 | CC[C@H]1CN(c2nc(N(C)C)c(C(=O)OC)nc2Cl)CCN1C1CCN(Cc2ccc(Cl)cc2)CC1 [compound 290] | < 0.025
42 | CC[C@H]1CN(c2nc(NC(=O)N(C)C)c(C(=O)OC)nc2Cl)CCN1C1CCN(Cc2ccc(Cl)cc2)CC1 [compound 291] | 0.025 to 0.1
43 | CC[C@H]1CN(c2nc(NC(=O)C(F)(F)F)c(C(N)=O)nc2Cl)CCN1C1CCN(Cc2ccc(Cl)cc2F)CC1 [compound 292] | < 0.025
44 | CC[C@H]1CN(c2nc(N)c(C(=O)O)nc2Cl)CCN1C1CCN(Cc2ccc(Cl)cc2)CC1 [compound 293] | > 0.1
45 | CC[C@H]1CN(c2nc(N)c(C(=O)OC)nc2Cl)CCN1C1CCN(Cc2ccc(Cl)cc2CCN)CC1 [compound 294] | < 0.025
46 | CC[C@H]1CN(c2nc(N)c(C(=O)OC)nc2Cl)CCN1C1CCN(Cc2ccc(Cl)cc2F)CC1 [compound 295] | < 0.025
47 | CC[C@H]1CN(c2nc(N)c(C(=O)OC)nc2Cl)CCN1C1CCN(Cc2ccc(Cl)cc2CCNC(=O)OC(C)(C)C)CC1 [compound 296] | < 0.025
